According to ChEMBL document CHEMBL3421539, “A novel cell-permeable, selective, and noncompetitive inhibitor of KAT3 histone acetyltransferases from a combined molecular pruning/classical isosterism approach” (J Med Chem, 2015):
Activity calls are given as the source filed them. The rule behind the calls is not given here.

Assays:
[1] = target: T1, Histone acetyltransferase KAT2B (Homo sapiens, UniProt Q92831); assay: Inhibition of PCAF (unknown origin) using histone H3/[acetyl-3H]-acetyl coenzyme A as substrate at 100 uM
Target sequence in this assay (Q92831 whole entry, looked up): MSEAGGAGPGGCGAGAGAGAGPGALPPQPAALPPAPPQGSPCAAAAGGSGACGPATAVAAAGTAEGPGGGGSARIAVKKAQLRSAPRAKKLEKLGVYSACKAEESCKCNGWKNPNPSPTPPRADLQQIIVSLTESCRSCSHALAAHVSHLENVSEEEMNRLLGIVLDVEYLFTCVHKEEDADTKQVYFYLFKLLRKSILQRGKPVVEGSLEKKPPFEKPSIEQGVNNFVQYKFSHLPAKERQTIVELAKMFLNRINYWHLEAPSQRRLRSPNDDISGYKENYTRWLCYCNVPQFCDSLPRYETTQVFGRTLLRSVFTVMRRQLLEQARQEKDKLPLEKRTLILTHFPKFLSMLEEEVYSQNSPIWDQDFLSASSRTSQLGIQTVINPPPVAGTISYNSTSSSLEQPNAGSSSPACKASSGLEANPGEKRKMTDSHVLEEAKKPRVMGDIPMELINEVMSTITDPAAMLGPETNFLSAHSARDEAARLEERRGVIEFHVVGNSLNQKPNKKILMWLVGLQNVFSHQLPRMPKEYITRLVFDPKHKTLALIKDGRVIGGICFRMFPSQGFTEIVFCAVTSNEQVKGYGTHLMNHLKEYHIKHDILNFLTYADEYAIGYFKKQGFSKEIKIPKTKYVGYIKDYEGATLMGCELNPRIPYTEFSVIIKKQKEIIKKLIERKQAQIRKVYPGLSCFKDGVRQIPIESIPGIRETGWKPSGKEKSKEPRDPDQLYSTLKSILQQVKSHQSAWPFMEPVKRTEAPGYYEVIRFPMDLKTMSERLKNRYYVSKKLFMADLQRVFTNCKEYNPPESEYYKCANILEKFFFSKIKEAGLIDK

[2] = Stability of the compound in organic solvent assessed as hydrolysis after 10 mins to 24 hrs by HPLC analysis; type: physicochemical
[3] = target: T2, Histone acetyltransferase p300 (Homo sapiens, UniProt Q09472); assay: Inhibition of P300 (unknown origin) using histone H3/[acetyl-3H]-acetyl coenzyme A as substrate at 100 uM
T2 sequence (Q09472 whole entry): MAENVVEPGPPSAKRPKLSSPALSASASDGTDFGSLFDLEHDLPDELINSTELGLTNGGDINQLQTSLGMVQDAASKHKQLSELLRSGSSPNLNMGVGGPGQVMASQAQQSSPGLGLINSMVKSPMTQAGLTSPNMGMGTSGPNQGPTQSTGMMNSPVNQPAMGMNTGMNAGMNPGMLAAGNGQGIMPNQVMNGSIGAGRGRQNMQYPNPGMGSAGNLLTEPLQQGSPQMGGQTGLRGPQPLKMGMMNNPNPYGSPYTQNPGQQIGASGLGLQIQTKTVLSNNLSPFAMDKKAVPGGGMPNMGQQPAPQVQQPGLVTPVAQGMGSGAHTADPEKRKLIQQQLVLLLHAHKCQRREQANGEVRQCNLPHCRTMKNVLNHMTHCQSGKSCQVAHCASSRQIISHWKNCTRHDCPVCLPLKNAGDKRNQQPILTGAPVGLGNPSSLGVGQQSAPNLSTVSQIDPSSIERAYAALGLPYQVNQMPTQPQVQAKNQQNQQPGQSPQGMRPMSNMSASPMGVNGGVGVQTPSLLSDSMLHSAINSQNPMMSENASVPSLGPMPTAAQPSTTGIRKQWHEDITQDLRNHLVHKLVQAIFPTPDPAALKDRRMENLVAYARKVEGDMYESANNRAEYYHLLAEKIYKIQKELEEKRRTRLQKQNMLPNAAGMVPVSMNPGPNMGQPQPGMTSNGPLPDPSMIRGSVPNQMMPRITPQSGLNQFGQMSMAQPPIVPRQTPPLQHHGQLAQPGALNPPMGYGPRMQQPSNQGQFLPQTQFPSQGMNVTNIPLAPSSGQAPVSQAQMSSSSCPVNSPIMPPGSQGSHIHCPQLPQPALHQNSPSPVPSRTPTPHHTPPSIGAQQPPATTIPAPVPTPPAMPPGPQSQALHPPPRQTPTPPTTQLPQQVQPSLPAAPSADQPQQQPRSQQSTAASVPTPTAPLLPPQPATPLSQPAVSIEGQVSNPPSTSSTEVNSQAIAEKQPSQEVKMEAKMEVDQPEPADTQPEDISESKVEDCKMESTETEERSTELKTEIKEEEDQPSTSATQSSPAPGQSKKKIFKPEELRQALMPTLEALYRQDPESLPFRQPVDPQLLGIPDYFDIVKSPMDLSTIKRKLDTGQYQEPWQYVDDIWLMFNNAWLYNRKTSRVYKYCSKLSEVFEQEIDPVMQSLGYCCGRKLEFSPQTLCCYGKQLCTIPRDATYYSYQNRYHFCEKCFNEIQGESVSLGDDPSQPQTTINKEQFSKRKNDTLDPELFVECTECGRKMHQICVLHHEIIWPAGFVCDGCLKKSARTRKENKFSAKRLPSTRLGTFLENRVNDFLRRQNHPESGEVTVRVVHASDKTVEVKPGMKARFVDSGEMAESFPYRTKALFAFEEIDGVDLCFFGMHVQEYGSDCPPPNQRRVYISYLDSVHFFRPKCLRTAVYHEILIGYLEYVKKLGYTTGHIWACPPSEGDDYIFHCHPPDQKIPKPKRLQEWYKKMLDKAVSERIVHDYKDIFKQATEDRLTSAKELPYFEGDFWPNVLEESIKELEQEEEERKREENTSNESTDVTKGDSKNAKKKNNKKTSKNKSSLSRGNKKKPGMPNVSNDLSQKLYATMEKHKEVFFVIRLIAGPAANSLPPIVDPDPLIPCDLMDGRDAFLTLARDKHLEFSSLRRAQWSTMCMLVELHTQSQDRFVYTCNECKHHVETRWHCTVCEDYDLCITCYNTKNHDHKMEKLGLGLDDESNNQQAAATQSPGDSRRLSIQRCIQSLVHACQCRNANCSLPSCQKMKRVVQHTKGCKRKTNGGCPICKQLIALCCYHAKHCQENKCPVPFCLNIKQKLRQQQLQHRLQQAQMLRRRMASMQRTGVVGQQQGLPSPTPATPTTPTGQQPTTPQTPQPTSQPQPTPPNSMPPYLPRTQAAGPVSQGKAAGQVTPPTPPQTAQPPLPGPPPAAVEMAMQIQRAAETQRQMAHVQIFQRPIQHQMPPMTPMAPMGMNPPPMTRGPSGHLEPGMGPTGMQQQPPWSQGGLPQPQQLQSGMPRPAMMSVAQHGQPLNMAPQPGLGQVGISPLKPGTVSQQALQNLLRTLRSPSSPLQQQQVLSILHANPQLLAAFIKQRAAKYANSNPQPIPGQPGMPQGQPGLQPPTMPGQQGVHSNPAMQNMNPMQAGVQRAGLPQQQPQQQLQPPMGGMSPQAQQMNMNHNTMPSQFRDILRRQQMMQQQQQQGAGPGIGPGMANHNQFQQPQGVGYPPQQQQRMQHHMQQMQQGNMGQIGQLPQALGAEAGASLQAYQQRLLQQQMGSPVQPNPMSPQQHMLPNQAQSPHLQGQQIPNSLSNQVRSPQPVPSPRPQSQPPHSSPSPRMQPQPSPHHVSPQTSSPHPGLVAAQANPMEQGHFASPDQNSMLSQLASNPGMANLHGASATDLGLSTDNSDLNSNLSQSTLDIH

[4] = Stability of the compound in aqueous medium assessed as hydrolysis after 10 mins to 24 hrs by HPLC analysis; type: physicochemical; conditions: buffer
[5] = target: T2, Histone acetyltransferase p300; assay: Inhibition of P300 (unknown origin) using histone H3/[acetyl-3H]-acetyl coenzyme A as substrate
[6] = Apparent permeability of the compound at RT after 24 hrs by PAMPA; type: physicochemical
[7] = Stability of the compound in aqueous medium assessed as hydrolysis after 30 mins by HPLC analysis; type: physicochemical; conditions: buffer, 0.5 h
[8] = target: T2, Histone acetyltransferase p300; assay: Inhibition of P300 in […] at 30 uM up to 40 mins by Histac FRET analysis; type: cell-based; conditions: COS-7
[9] = target: T1, Histone acetyltransferase KAT2B; assay: Inhibition of PCAF (unknown origin) using histone H3/[acetyl-3H]-acetyl coenzyme A as substrate at 10 uM
Target sequence in this assay (Q92831 whole entry, looked up): as the sequence (Q92831 whole entry, looked up) above

[10] = target: T1, Histone acetyltransferase KAT2B; assay: Inhibition of PCAF (unknown origin) using histone H3/[acetyl-3H]-acetyl coenzyme A as substrate
Target sequence in this assay (Q92831 whole entry): as the sequence (Q92831 whole entry, looked up) above

[11] = target: T2, Histone acetyltransferase p300; assay: Binding affinity to human recombinant P300 catalytic domain by SPR analysis
[12] = Stability of the compound in PBS at 25 degC after 2 mins to 24 hrs by HPLC analysis; type: physicochemical; conditions: buffer
[13] = target: T2, Histone acetyltransferase p300; conditions: 10 uM
Description: Inhibition of P300 (unknown origin) using histone H3/[acetyl-3H]-acetyl coenzyme A as substrate at 10 uM

[14] = target: Histone acetyltransferase KAT2A (Homo sapiens) (UniProt Q92830); assay: Inhibition of recombinant GCN5 (unknown origin)
Sequence of Histone acetyltransferase KAT2A (Homo sapiens) (Q92830 2-837 limits assumed): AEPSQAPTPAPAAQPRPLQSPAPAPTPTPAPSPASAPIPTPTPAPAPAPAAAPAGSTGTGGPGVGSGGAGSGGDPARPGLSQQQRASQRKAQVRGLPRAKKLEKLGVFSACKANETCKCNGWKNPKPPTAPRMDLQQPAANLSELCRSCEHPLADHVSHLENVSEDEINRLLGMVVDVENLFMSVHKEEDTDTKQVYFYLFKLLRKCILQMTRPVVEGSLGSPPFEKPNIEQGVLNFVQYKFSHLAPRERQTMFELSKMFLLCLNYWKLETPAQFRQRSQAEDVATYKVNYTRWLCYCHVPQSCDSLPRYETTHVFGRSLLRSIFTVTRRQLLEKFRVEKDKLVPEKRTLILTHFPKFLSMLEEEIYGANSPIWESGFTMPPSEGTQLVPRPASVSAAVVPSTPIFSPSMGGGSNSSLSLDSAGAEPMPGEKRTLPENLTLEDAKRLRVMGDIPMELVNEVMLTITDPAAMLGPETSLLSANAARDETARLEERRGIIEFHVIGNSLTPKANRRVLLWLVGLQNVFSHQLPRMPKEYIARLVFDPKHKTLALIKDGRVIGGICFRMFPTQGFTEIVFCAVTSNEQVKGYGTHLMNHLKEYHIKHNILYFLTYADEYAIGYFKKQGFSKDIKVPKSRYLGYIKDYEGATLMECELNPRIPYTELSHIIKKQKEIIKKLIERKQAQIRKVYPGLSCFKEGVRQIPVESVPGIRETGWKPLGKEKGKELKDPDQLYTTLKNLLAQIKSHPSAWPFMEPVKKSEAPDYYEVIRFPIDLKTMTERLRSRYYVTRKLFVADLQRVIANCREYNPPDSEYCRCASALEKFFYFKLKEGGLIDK

[15] = Cell cycle arrest in human U937 cells assessed as accumulation at G0/G1 phase at 100 uM after 72 hrs by propidium iodide staining-based FACS analysis; type: functional; conditions: U-937
[16] = Cytotoxicity against human U937 cells assessed as cell viability at 10 to 100 uM after 24 hrs by MTT assay; type: cell-based; conditions: u-937, 24 h
[17] = target: T2, Histone acetyltransferase p300; assay: Noncompetitive inhibition of P300 (unknown origin) using acetyl CoA as substrate after 15 mins by double reciprocal plot analysis
[18] = target: T2, Histone acetyltransferase p300; assay: Reversible inhibition of P300 (unknown origin)
[19] = target: T2, Histone acetyltransferase p300; assay: Inhibition of P300 in human U937 cells assessed as reduction in H4K5 histone acetylation at 100 uM by immunoblotting analysis; type: cell-based; conditions: U-937, TDE = time-dependent effect
[20] = target: T1, Histone acetyltransferase KAT2B; assay: Inhibition of recombinant PCAF (unknown origin)
Target sequence in this assay (Q92831 whole entry, looked up): as the sequence (Q92831 whole entry, looked up) above

[21] = Induction of beta-mercaptoethanol adduct formation in PBS after 30 mins to 24 hrs by HPLC analysis
CREB-binding protein = CREB-binding protein (Homo sapiens, UniProt Q92793); assay: Inhibition of recombinant CBP (unknown origin)
[22] = target: T2, Histone acetyltransferase p300; assay: Inhibition of P300 in human U937 cells assessed as reduction in H3K9 histone acetylation at 100 uM by immunoblotting analysis; type: cell-based; conditions: U-937, TDE = time-dependent effect
[23] = Cell cycle arrest in human U937 cells assessed as increase in hypodiploid nuclei level at 100 uM after 72 hrs by Nicoletti method; type: functional, cell-based; conditions: U-937
[24] = target: T2, Histone acetyltransferase p300; assay: Noncompetitive inhibition of P300 (unknown origin) using biotinylated H3 as substrate after 15 mins by double reciprocal plot analysis
[25] = target: T2, Histone acetyltransferase p300; assay: Inhibition of recombinant P300 (unknown origin)

## C=CCN1C(=O)C(=Cc2ccc(O)cc2)C(=O)N(CC=C)C1=O
[1]
  inhibition: 3.1%
[2]
  Stability: Stable
[3]
  inhibition: 64.7%
[4]
  Stability: Unstable

## COc1ccc(C=C2C(=O)N(CC(C)C)C(=O)N(CC(C)C)C2=O)cc1OC
[1]
  inhibition: 9.2%
[2]
  Stability: Stable
[3]
  inhibition: 45.8%
[4]
  Stability: Unstable

## C=CCN1C(=O)C(Cc2ccccc2)C(=O)N(CC=C)C1=O
[3]
  inhibition: 28.9%

## CC(C)CN1C(=O)C(C(=O)c2ccc(O)c(O)c2)C(=O)N(CC(C)C)C1=O
[1]
  inhibition: 3.4%
[3]
  inhibition: 8.4%

## C=CCN1C(=O)C(Cc2ccc(O)c(O)c2)C(=O)N(CC=C)C1=O
[3]
  inhibition: 1.1%

## O=C1C(Cc2ccc(O)c(O)c2)C(=O)N(Cc2ccccc2)C(=O)N1Cc1ccccc1
[3]
  inhibition: 59.9%

## CC(C)CN1C(=O)C(Cc2ccc(O)c(O)c2)C(=O)N(CC(C)C)C1=O
[3]
  inhibition: 24.3%

## COc1ccc(C=C2C(=O)N(Cc3ccccc3)C(=O)N(Cc3ccccc3)C2=O)cc1
[1]
  inhibition: -8.2%
[2]
  Stability: Stable
[5]
  IC50: 8 µM
[3]
  inhibition: 93.6%
[4]
  Stability: Unstable

## C=CCN1C(=O)C(C(=O)c2ccccc2)C(=O)N(CC=C)C1=O
[3]
  inhibition: 28.1%

## O=C1C(=Cc2ccccc2)C(=O)N(Cc2ccccc2)C(=O)N1Cc1ccccc1
[2]
  Stability: Stable
[4]
  Stability: Unstable

## CC(C)CN1C(=O)C(Cc2ccc(O)cc2)C(=O)N(CC(C)C)C1=O
[1]
  inhibition: 5%
[3]
  inhibition: 64.6%

## C=CCN1C(=O)C(Cc2ccc(O)cc2)C(=O)N(CC=C)C1=O
[1]
  inhibition: -7.5%
[3]
  inhibition: 23.7%

## CC(C)CN1C(=O)C(=Cc2ccccc2)C(=O)N(CC(C)C)C1=O
[2]
  Stability: Stable
[4]
  Stability: Unstable

## CC(C)NCC(O)COc1cccc2ccccc12 (stereo not given) [PROPRANOLOL]
[6]
  Papp at 24 h: 4.1 ×10⁻⁶ cm/s

## C=CCN1C(=O)C(C(=O)c2ccc(O)cc2)C(=O)N(CC=C)C1=O
[1]
  inhibition: -2.7%
[3]
  inhibition: 19.1%

## CC(C)CN1C(=O)C(C(=O)c2ccc(O)cc2)C(=O)N(CC(C)C)C1=O
[1]
  inhibition: 19.3%
[3]
  inhibition: 39.7%

## C=CCN1C(=O)C(=Cc2ccc(O)c(OC)c2)C(=O)N(CC=C)C1=O
[1]
  inhibition: 5.1%
[2]
  Stability: Stable
[5]
  IC50: 26.4 µM
[3]
  inhibition: 67.3%
[4]
  Stability: Unstable

## O=C(c1ccc(O)cc1)C1C(=O)N(Cc2ccccc2)C(=O)N(Cc2ccccc2)C1=O
[3]
  inhibition: 54.4%

## C=CCN1C(=O)C(C(=O)c2ccc(O)c(O)c2)C(=O)N(CC=C)C1=O
[1]
  inhibition: 3.6%
[3]
  inhibition: 4.9%

## COc1ccc(C=C2C(=O)N(CC(C)C)C(=O)N(CC(C)C)C2=O)cc1O
[1]
  inhibition: 10.6%
[2]
  Stability: Stable
[5]
  IC50: 31.4 µM
[3]
  inhibition: 84.7%
[4]
  Stability: Unstable

## CC(C)CN1C(=O)C(Cc2ccccc2)C(=O)N(CC(C)C)C1=O
[3]
  inhibition: 23.1%

## COc1ccc(C=C2C(=O)N(Cc3ccccc3)C(=O)N(Cc3ccccc3)C2=O)cc1O
[7]
  Stability: Unstable
[2]
  Stability: Stable
[5]
  IC50: 5.9 µM
[3]
  inhibition: 97.3%
[4]
  Stability: Unstable

## O=C1C(=Cc2ccc(O)cc2)C(=O)N(Cc2ccccc2)C(=O)N1Cc1ccccc1
[7]
  Stability: Unstable
[1]
  inhibition: -0.6%
[2]
  Stability: Stable
[5]
  IC50: 2.1 µM
[3]
  inhibition: 99.2%
[4]
  Stability: Unstable
[8]
  inhibition: Active

## COc1cc(C=C2C(=O)N(Cc3ccccc3)C(=O)N(Cc3ccccc3)C2=O)ccc1O
[7]
  Stability: Unstable
[2]
  Stability: Stable
[5]
  IC50: 1.5 µM
[3]
  inhibition: 97.1%
[4]
  Stability: Unstable

## C=CCN1C(=O)C(=Cc2ccc(O)c(O)c2)C(=O)N(CC=C)C1=O
[1]
  inhibition: 3.3%
[2]
  Stability: Stable
[3]
  inhibition: 61.6%
[4]
  Stability: Unstable

## CCCCCCCCCCCCCCCc1cccc(O)c1C(=O)O [ANACARDIC ACID]
[9]
  inhibition: < 10%
[1]
  inhibition: 3.6%
[10]
  IC50: 33.9 µM

## O=C(c1ccccc1)C1C(=O)N(Cc2ccccc2)C(=O)N(Cc2ccccc2)C1=O
[3]
  inhibition: 84.8%
[11]
  Kd: 2.4 µM
[12]
  Stability: Stable

## O=C(c1ccc(O)c(O)c1)C1C(=O)N(Cc2ccccc2)C(=O)N(Cc2ccccc2)C1=O
[3]
  inhibition: 48.2%

## CC(C)CN1C(=O)C(=Cc2ccc(O)c(O)c2)C(=O)N(CC(C)C)C1=O
[2]
  Stability: Stable
[5]
  IC50: 5.4 µM
[3]
  inhibition: 91.8%
[4]
  Stability: Unstable

## CC1=NN(c2ccc(C(=O)O)cc2)C(=O)/C1=C\Cc1ccc(Cc2cc(C)c(C)cc2[N+](=O)[O-])o1
[13]
  inhibition: 86%
[5]
  IC50: 1.6 µM

## COc1ccc(C=C2C(=O)N(Cc3ccccc3)C(=O)N(Cc3ccccc3)C2=O)cc1OC
[2]
  Stability: Stable
[5]
  IC50: 11.4 µM
[3]
  inhibition: 88.2%
[4]
  Stability: Unstable

## C=CCN1C(=O)C(=Cc2ccc(OC)c(OC)c2)C(=O)N(CC=C)C1=O
[1]
  inhibition: 6.6%
[2]
  Stability: Stable
[3]
  inhibition: 31.1%
[4]
  Stability: Unstable

## COc1ccc(C=C2C(=O)N(CC(C)C)C(=O)N(CC(C)C)C2=O)cc1
[1]
  inhibition: 3.6%
[2]
  Stability: Stable
[3]
  inhibition: 53.8%
[4]
  Stability: Unstable

## O=C1C(Cc2ccccc2)C(=O)N(Cc2ccccc2)C(=O)N1Cc1ccccc1
[3]
  inhibition: 83.9%
[11]
  Kd: 0.11 µM
[12]
  Stability: Stable

## CC(C)CN1C(=O)C(C(=O)c2ccccc2)C(=O)N(CC(C)C)C1=O
[3]
  inhibition: 34.1%

## C=CCN1C(=O)C(=Cc2ccc(OC)c(O)c2)C(=O)N(CC=C)C1=O
[1]
  inhibition: 3%
[2]
  Stability: Stable
[3]
  inhibition: 49.5%
[4]
  Stability: Unstable

## CC(C)CN1C(=O)C(=Cc2ccc(O)cc2)C(=O)N(CC(C)C)C1=O
[2]
  Stability: Stable
[5]
  IC50: 8.5 µM
[3]
  inhibition: 94%
[4]
  Stability: Unstable

## Cc1cc(O)cc(C)c1C=C1C(=O)N(Cc2ccccc2)C(=O)N(Cc2ccccc2)C1=O
[14]
  inhibition: inactive
[15]
  Activity: Active
[16]
  Activity: Non-toxic
[17]
  Ki: 2 µM
  alphaKi: 5.7 µM
[6]
  Papp at 24 h: 1.9 ×10⁻⁶ cm/s
[18]
  inhibition: Active
[19]
  inhibition: tde
[20]
  inhibition: inactive
[21]
  Activity: inactive
CREB-binding protein
  IC50: 1.1 µM
[22]
  inhibition: tde
[23]
  Activity: Active
[24]
  Ki: 9.4 µM
  alphaKi: 6.8 µM
[12]
  Stability: Stable
[25]
  IC50: 2.9 µM

## COc1cc(C=C2C(=O)N(CC(C)C)C(=O)N(CC(C)C)C2=O)ccc1O
[1]
  inhibition: 9.3%
[2]
  Stability: Stable
[5]
  IC50: 4.2 µM
[3]
  inhibition: 96.4%
[4]
  Stability: Unstable

## O=C1C(Cc2ccc(O)cc2)C(=O)N(Cc2ccccc2)C(=O)N1Cc1ccccc1
[3]
  inhibition: 60.3%

## C=CCN1C(=O)C(=Cc2ccccc2)C(=O)N(CC=C)C1=O
[2]
  Stability: Stable
[4]
  Stability: Unstable

## C=CCN1C(=O)C(=Cc2ccc(OC)cc2)C(=O)N(CC=C)C1=O
[1]
  inhibition: 11.7%
[2]
  Stability: Stable
[3]
  inhibition: 59.9%
[4]
  Stability: Unstable

## O=C1C(=Cc2ccc(O)c(O)c2)C(=O)N(Cc2ccccc2)C(=O)N1Cc1ccccc1
[7]
  Stability: Unstable
[1]
  inhibition: -2.3%
[2]
  Stability: Stable
[5]
  IC50: 1.6 µM
[3]
  inhibition: 96.2%
[4]
  Stability: Unstable
